The values below come from patent US8729047B2, “Compositions for inhibiting redox-sensitive GTPases” (Board of Regents, The University of Texas System, priority 2010, dated 2014).

Common to all, as to type: cell-based
Assay [1] deals with T1, RhoA (Rattus norvegicus, UniProt P61589).
T1 construct: endogenous in cells; host or cells: A7r5 cells (rat aortic vascular smooth muscle)
Description: RhoA expression (Western) and RhoA G-LISA activity in A7r5 cells. As to the method:
FIG. 20. Determination of RhoA activity and MLC phosphorylation. […] Cell lysates in a buffer containing 1% NP-40, 10 mM EDTA, and 20 mM TrisHCl (pH 7.4) were centrifuged (50,000×g, 20 min) to remove solid matter. (A) The soluble cell extract was then used to perform Western blot analyses for RhoA and the MLC. This cell extract also was used for the co-IP-based ESI-MS analysis (FIG. 6). (B) A RhoA activity assay was colorimetrically determined using cell extract; the assay was performed with the RhoA G-LISA Activation Assay Kit (Cat. No. BK124) (Denver, Colo.). To examine the level of phosphorylation of the MLC, cells were cultured with ˜5 μCi of ^32P in 1 mL of phosphate-free DMEM. The collected cell extract was nutated with resin coupled with a macrophage myosin II antibody at 4° C. for 5 h. Resin was collected by centrifugation, and proteins bound to the resin were washed and eluted with a buffer (80° C.) containing […], 5 mM DTT, and 10 mM TrisHCl (pH 6.8). The immunoprecipitates were then analyzed by SDS-PAGE and autoradiographed. The values of RhoA activity and the MLC phosphorylation determined from untreated cells were set at 100%. […] The data represented in the figure represent the mean values of triplicate measurements, and the vertical error bar indicates standard errors.

Another assay relates to ERM. The assay can be described thus: ERM phosphorylation in activated T cells. As to the method: FIG. 26. Determination of Rac1 activity and ERM phosphorylation. […] (A) The soluble cell extract was then used to perform Western blot analyses for Rac1 and the ERM. This cell extract also was used for the co-IP-based ESI-MS analysis (FIG. 8). (B) A Rac1 activity assay was colorimetrically determined using cell extract; the assay was performed with the Rac1 G-LISA Activation Assay Kit (Cat. No. BK125) (Denver, Colo.). To examine the level of phosphorylation of the ERM, cells were cultured in complete RPMI 1640 medium with ˜50 μCi of ^32P/mL before initiating stimulation of T cells. The collected cell extract was nutated with resin coupled with a human ERM (231C2a) antibody (Santa Cruz Biotechnology, CA) at 4° C. for 5 h. […] The immunoprecipitates were then analyzed by SDS-PAGE and autoradiographed. […] The data represented in the figure represent the mean values of triplicate measurements, and the vertical error bar indicates standard errors.

The target in assay [2] is T1, RhoA. The assay can be described thus: Co-IP ESI-MS of thioguanine nucleotide disulfide adduct in A7r5 cells. As to conditions: for thioguanine nucleotide-RhoA disulfide adduct (Cys20): FIGS. 21, 22. As to the method:
FIG. 21. Detection of 6-TGNP adduct from A7r5 and T cells. Experimental procedures using A7r5 (A and B) and T (C and D) cells, respectively, were identical to those of the experiments described in FIG. 19 and previous studies (Tiede et al. J. Clin. Invest. 111, 1133-1145 (2003); and Poppe et al. J. Immunol. 176, 640-651 (2006)). The cell extract was incubated with a monoclonal RhoA antibody (A and B) or a Rac1 antibody (C and D) coupled with resin. Resin was collected by centrifugation (5,000×g, 10 min), which was suspended in 50% methanol:0.1% formic acid. The protein portion was separated by brief centrifugation (3,000×g for 5 min), resuspended in a buffer containing 10 mM EDTA and 5 mM phosphate (pH 7.5), digested with trypsin for 10 h, and analyzed with MS. The MS peak at 1476.6 Da represents peptide-6-TGDP adduct; TC^20LLIVFSK-6-TGDP.
FIG. 22. Detection of 8-TGNP adduct from A7r5 cells. […] The indicated MS peak at 1476.6 Da represents peptide-8-TGDP adduct; TC^20LLIVFSK-8-TGDP (SEQ ID NO:4). The molecular weight of the peptide-8-TGDP adduct is exactly the same as that of the peptide-6-TGDP adduct. A and B, respectively, represent any of samples taken from a cell culture with and without treatment with 8-TG.

T1 sequence (P61589 whole entry): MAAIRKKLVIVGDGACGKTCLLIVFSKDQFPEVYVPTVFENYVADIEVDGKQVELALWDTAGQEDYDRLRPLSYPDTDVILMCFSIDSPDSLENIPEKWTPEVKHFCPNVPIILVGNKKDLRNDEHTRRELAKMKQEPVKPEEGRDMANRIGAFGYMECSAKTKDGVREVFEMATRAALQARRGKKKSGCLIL

In the case of `Nc1nc2nc[nH]c2c(=S)[nH]1` [6-TG, 6-thioguanine], on RhoA [1] (6-TG 1 μM, within 3 days, FIG. 20B), the RhoA inactivation result is given as “significant portion of RhoA was inactivated”. Besides, the “fraction of inactive RhoA” value at RhoA [1] (6-TG plus DETA/NO 10 μM, FIG. 20B) was “synergistically increases the fraction of inactive RhoA”. Further, the “cellular expression levels of RhoA and of the MLC” value on RhoA [1] (presence or absence of 6-TG, FIG. 20A) is “not changed”. In addition, the “blockage of ERM dephosphorylation” value in the assay with ERM (6-TG plus DETA/NO 10 μM) is “increases the blockage of the dephosphorylated form of ERM”. The ERM phosphorylation entry in the assay with ERM (6-TG, after three days, FIG. 26B) is “large portion of ERM in T cells was observed to have been phosphorylated”. Moreover, the “thioguanine nucleotide-RhoA disulfide adduct (Cys20)” value at RhoA [2] is “biologically inactive 6-TGNP-RhoA disulfide adduct”. For the same compound, the “MS peak representing 6-TGNP-RhoA adduct” value on RhoA [2] (both 6-TG and NO, intensity not truly quantitative) is recorded as “increased”.
Take `Nc1nc2[nH]c(S)nc2c(=O)[nH]1` [8-TG, 2-amino-8-mercapto-1H-purin-6(9H)-one]: on RhoA [1] (not shown), the “screen of 6-TP isomers on RhoA activity” value is “most effectively inhibits RhoA activity”. In addition, in the assay with ERM (not shown), the “screen of 6-TP isomers on ERM dephosphorylation” value is reported as “blocks the dephosphorylation of ERM”. Besides, the “thioguanine nucleotide-RhoA disulfide adduct (Cys20)” value on RhoA [2] was “biologically inactive 8-TGNPRhoA disulfide adduct”.
